From the NIST ThermoML archive (doi:10.1021/je0503204)
Numbers after ± are expanded uncertainties.

Details: Liquid; for speed of sound: Pulse-echo method

CCCCCCCl [1-chlorohexane]
Details	mass density, 353.15 K [kg/m3]	mass density, 373.15 K [kg/m3]	mass density, 393.15 K [kg/m3]	speed of sound, 353.15 K [m/s]	speed of sound, 373.15 K [m/s]	speed of sound, 393.15 K [m/s]
100 kPa	–	802.2 ± 4.8	780.7 ± 4.7	–	922.9 ± 3.7	853.3 ± 3.4
5000 kPa	–	809.3 ± 4.9	789.2 ± 4.7	–	957 ± 3.9	893.8 ± 3.6
9910 kPa	–	815.2 ± 4.9	796.7 ± 4.8	–	989.6 ± 4	928.6 ± 3.7
19720 kPa	–	827.4 ± 5	810.5 ± 4.9	–	1050.4 ± 4.2	993.2 ± 4
29530 kPa	–	838.3 ± 5	822.6 ± 4.9	–	1105.8 ± 4.5	1051.8 ± 4.2
39340 kPa	–	848 ± 5.1	833.3 ± 5	–	1156.5 ± 4.7	–
49150 kPa	–	856.9 ± 5.1	–	–	1203.2 ± 4.8	–
58960 kPa	–	865 ± 5.2	–	–	1246.3 ± 5	–
68770 kPa	–	872.5 ± 5.2	–	–	1286.9 ± 5.2	–
78580 kPa	–	879.4 ± 5.3	–	–	1324.8 ± 5.3	–
88390 kPa	–	885.9 ± 5.3	–	–	1360.8 ± 5.5	–
98200 kPa	903.8 ± 5.4	891.9 ± 5.4	–	1441.9 ± 5.8	1395.1 ± 5.6	–
108000 kPa	909.2 ± 5.5	897.6 ± 5.4	–	1474 ± 5.9	1427.9 ± 5.7	–
117800 kPa	914.3 ± 5.5	903 ± 5.4	–	1504.7 ± 6.1	1459.6 ± 5.9	–
127600 kPa	919.1 ± 5.5	908.1 ± 5.4	–	1534.3 ± 6.2	1490.1 ± 6	–
137400 kPa	923.7 ± 5.5	912.9 ± 5.5	–	1562.7 ± 6.3	1519.6 ± 6.1	–
147200 kPa	928.1 ± 5.6	917.5 ± 5.5	–	1590.1 ± 6.4	1548.1 ± 6.2	–
157100 kPa	932.3 ± 5.6	921.9 ± 5.5	–	1616.4 ± 6.5	1575.5 ± 6.3	–
166900 kPa	936.3 ± 5.6	926.1 ± 5.6	–	1641.8 ± 6.6	1601.7 ± 6.4	–
176700 kPa	940.1 ± 5.6	930.1 ± 5.6	–	1666.1 ± 6.7	1626.5 ± 6.5	–
186500 kPa	943.8 ± 5.7	934 ± 5.6	–	1689.4 ± 6.8	1649.5 ± 6.6	–
196300 kPa	947.4 ± 5.7	937.7 ± 5.6	–	1711.4 ± 6.9	1670.6 ± 6.7	–
